How the values were obtained:
[1] = Activity assay with NBD-Gb3 in PBS pH 7.4 (HP-TLC); assay type: biochemical
Protocol: a-Gals: prh-alpha galactosidase, GCB a-Gal (endogenous green coffee bean).
80 μl PBS (sigma), pH=7.4
10 μl of NBD-Gb3 0.1 μg/ul in Ethanol [10 ug/ml in reaction]
10 μl of a-Gal 1 mg/ml [100 μg/ml in reaction]
Incubated for 60 min in 37° C.
150 μl chloroform: methanol (2:1) were added followed by vortex the lower phase pulled out speed-vac was effected to complete evaporation and the pellet dissolved in 50 μl Chloroform: methanol [1:1] All samples were injected on HP-TLC silica-60 plate [40 ul ]
Chloroform: methanol: H2O [100:42:6].

[2] = In vitro hydrolysis of Gb3-NBD by alpha galactosidases from different sources under various pH conditions (TLC); assay type: biochemical; details: phosphate buffer pH 6.5, 60 min 37° C., a-Gal 50 ug/ml
Protocol: Green Coffee Bean-GCB a-Gal (Sigma #G8507)
Plant recombinant human alpha galactosidase was produced as described in WO2008/132743 (alpha-Gal-KDEL).
Commercial recombinant human alpha galactosidase (Replagal, Shire)
The following protocol was used for NBD-Gb3 hydrolysis:
90 μl activity buffer [citrate phosphate pH=4.6; phosphate buffer pH=6.5
10 μl of NBD-Gb3 0.35 ug/ul in Ethanol [35 ug/ml in reaction]
5 μl of a-Gal 1 mg/ml [50 ug/ml in reaction]
Incubation for 60 min in 37° C.
100 μl chloroform were added followed by vortex
50 μl methanol were added followed by vortex
Injection on TLC silica-60 plate, Chloroform: methanol: H2O [100:42:6] as mobile phase.

[3] = Biodistribution of fluorescent Gb3 in WT and Fabry mice; assay type: in vivo
Description: For testing the hypothesis that circulating Gb3 can reach and accumulate in organs, organ uptake and biodistribution of fluorescent Gb3 (N-Dodecanoyl-NBD-ceramide trihexoside) in wild type (WT) and Fabry mice were effected.
Animals: Mice: Fabry mice and WT mice
Group Size: total 12 male mice, n=2
Materials: fluorescent Gb3 (N-Dodecanoyl-NBD-ceramide trihexoside; Catalog #: 1631, Matreya Pa. 16823 USA
Jackson B6J129Gla α-galactosidase-A-deficient mice (“Fabry mice”) were purchased from Jackson Laboratories. These mice are characterized by being totally deficient in α-Galactosidase-A activity and progressively accumulate Gb3 in both plasma and in the lysosomes of most tissues (in particular, the liver, spleen, heart, skin, and kidneys). In addition, these mice have no clinical disease phenotype and survive a normal laboratory life span (>2 years). Hemizygous affected males were bred to homozygous affected females, thereby providing only affected offspring. For these studies, all mice were affected adult males 12 to 30 weeks of age at study initiation.
Administration: IV injection, tail vein.
Gb3-NBD was injected to wild type and Fabry mice. Blood was collected 1 hour and 24 hours following injection and plasma was prepared using accepted methods. Gb3-NBD levels were determined using Fluorescent Elisa reader (Infinite M200; Tecan, Switzerland), subtracting basal fluorescent levels plasma of control mice injected with saline.
Gb3 presence was also detected with HP TLC (CAMAG, Switzerland)
Organs (liver, kidney heart and spleen) were collected from the mice of the experiment described above, and Gb3-NBD levels were determined by fluorescence detector and HPTLC as described. As the experiment was initial, low levels of Injected Gb3 NBD were given.

[4] = clinical studies; cited from earlier work

Molecule: Green coffee bean alpha gal: Endogenous green coffee bean alpha galactosidase (Sigma #G8507)
- Activity compared with plant recombinant human alpha Gal (upshift of band) ([1]; PBS pH 7.4): works better
- Enzymatic activity on NBD-Gb3 under neutral to basic pH ([1]; PBS pH 7.4, 60 min 37° C., a-Gal 100 μg/ml, HP-TLC): demonstrate enzymatic activity
- Activity under alkaline pH compared with the acidic conditions of FIG. 3 ([1]; pH 7.4 vs acidic conditions of FIG. 3): more active under alkaline pH conditions
- Hydrolysis of Gb3-NBD to lactosylceramide-NBD [2]: can hydrolyze NBD-Gb3

Molecule: N-Dodecanoyl-NBD-ceramide trihexoside [Gb3-NBD]
- Gb3-NBD levels in plasma (fluorescence) ([3]; 24 hours following iv injection, 320 ug/kg, WT and Fabry mice): fluorescence only in Fabry mice
- Gb3-NBD fluorescent levels in plasma and organs (liver, kidney, heart, spleen) ([3]; iv 320 ug/kg, fluorescence detector): only detectable in Plasma (FIG. 5) and Liver
- Gb3-NBD bands in organs by HPTLC ([3]; iv 320 ug/kg, inconclusive due to high background): only in Fabry mice

B1: Replagal: Commercial recombinant human alpha galactosidase (Replagal, Shire) (protein, UniProt P06280 32-429, looked up)
Alpha-galactosidase A: LDNGLARTPTMGWLHWERFMCNLDCQEEPDSCISEKLFMEMAELMVSEGWKDAGYEYLCIDDCWMAPQRDSEGRLQADPQRFPHGIRQLANYVHSKGLKLGIYADVGNKTCAGFPGSFGYYDIDAQTFADWGVDLLKFDGCYCDSLENLADGYKHMSLALNRTGRSIVYSCEWPLYMWPFQKPNYTEIRQYCNHWRNFADIDDSWKSIKSILDWTSFNQERIVDVAGPGGWNDPDMLVIGNFGLSWNQQVTQMALWAIMAAPLFMSNDLRHISPQAKALLQDKDVIAINQDPLGKQGYQLRQGDNFEVWERPLSGLAWAVAMINRQEIGGPRSYTIAVASLGKGVACNPACFITQLLPVKRKLGFYEWTSRLRSHINPTGTVLLQLENTMQMSLKDLL
modifications: agalsidase alfa
- Clearance of Gb3 from plasma, kidney cells, capillary endothelial cells of heart and skin [4]: proven efficacious
- Hydrolysis of Gb3-NBD to lactosylceramide-NBD [2]: can partially hydrolyze Gb3

B2: Fabrazyme: Recombinant form of human α-galactosidase A (agalsidase beta, Genzyme) (protein, UniProt P06280 32-429, looked up)
Alpha-galactosidase A: B1 Alpha-galactosidase A
modifications: agalsidase beta
- Clearance of Gb3 from plasma, kidney cells, capillary endothelial cells of heart and skin [4]: proven efficacious
